According to patent US10450328B2, “Crystals of thiadiazole derivative DPP-IV inhibitors and uses thereof” (CHIA TAI TIANQING PHARMACEUTICAL GROUP CO., LTD., priority 2015, dated 2019):

Key:
[1] = result in words; cited from earlier work
DPP-IV = DPP-IV (Homo sapiens, UniProt P27487); details: result in words; cited from earlier work
Powder fluidity = format: physicochemical; details: result in words
[2] = Stability test: experiments on influencing factors (light irradiation, high temperature, high humidity); format: physicochemical; details: for stability: result in words
Description: Suitable amounts of the crystalline Form A obtained in Example 2 and the crystalline Form B obtained in Example 3 were taken to carry out experiments on influencing factors according to the methods described in the Chinese Pharmacopoeia, 2010 edition, Part II, Appendix.

[3] = High-humidity Test 92.5% RH, 5 days
[4] = High-humidity Test 92.5% RH, 10 days
[5] = High-temperature Test 40° C., 5 days
[6] = High-temperature Test 40° C., 10 days
[7] = High-temperature Test 60° C., 5 days
[8] = Light Irradiation Test 4500Lux, 5 days
[9] = Light Irradiation Test 4500Lux, 10 days
[10] = High-temperature Test 60° C., 5 days, 60 °C
[11] = High-temperature Test 60° C., 10 days, 60 °C

DPP-IV, sequence (P27487 whole entry, species assumed): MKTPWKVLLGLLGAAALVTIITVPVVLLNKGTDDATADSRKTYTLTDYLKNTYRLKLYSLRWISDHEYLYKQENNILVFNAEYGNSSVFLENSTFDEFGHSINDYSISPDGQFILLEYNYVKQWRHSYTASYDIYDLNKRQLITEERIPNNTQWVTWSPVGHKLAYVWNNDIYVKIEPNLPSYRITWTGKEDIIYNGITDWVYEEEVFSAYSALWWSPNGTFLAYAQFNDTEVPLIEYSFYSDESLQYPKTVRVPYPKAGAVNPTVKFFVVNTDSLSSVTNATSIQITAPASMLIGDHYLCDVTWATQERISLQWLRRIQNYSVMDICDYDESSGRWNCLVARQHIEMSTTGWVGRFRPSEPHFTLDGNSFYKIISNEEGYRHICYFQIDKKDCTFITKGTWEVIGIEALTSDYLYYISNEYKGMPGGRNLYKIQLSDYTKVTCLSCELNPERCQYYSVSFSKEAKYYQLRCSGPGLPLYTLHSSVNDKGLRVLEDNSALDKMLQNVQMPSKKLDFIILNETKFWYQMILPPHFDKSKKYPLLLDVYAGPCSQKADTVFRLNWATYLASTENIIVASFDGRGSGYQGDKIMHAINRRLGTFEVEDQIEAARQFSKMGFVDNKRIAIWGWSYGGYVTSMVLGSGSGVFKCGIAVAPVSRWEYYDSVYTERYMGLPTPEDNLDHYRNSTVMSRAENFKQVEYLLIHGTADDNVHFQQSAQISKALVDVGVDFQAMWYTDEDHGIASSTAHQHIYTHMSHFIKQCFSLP

In the case of `CC#CCn1c(N2CCC[C@@H](N)C2)nc2c1c(=O)n(Cc1ccc3nsnc3n1)c(=O)n2C` [Compound 7], the half-life in vivo [1] is given as “suitable half-life in vivo”, the “metabolic level in vivo” value [1] is given as “very good metabolic level in vivo” and the “inhibitory activity against DPP-IV” value (DPP-IV) is given as “very good inhibitory activity”.
In the case of `CC#CCn1c(N2CCC[C@@H](N)C2)nc2c1c(=O)n(Cc1ccc3nsnc3n1)c(=O)n2C` [crystalline Form A], the powder fluidity (Powder fluidity) is reported as “good powder fluidity”, the “Relative Substances Main Peak %” value ([2]; 0 day) is reported as 98.78% and the “Relative Substances Maximum Single Impurity %” value ([2]; 0 day) is reported as 0.56%. For the same compound, the “Relative Substances Main Peak %” value [2, 3] was 98.79%, the “Relative Substances Maximum Single Impurity %” value [2, 3] was 0.61% and the “Relative Substances Main Peak %” value [2, 4] was 98.84%. The “Relative Substances Maximum Single Impurity %” value [2, 4] was 0.61%, the “Relative Substances Main Peak %” value [2, 5] was 98.72% and the “Relative Substances Maximum Single Impurity %” value [2, 5] was 0.60%. For the same compound, the “Relative Substances Main Peak %” value [2, 6] was 98.42%, the “Relative Substances Maximum Single Impurity %” value [2, 6] was 0.61% and the “Relative Substances Main Peak %” value [2, 7] was 98.72%. For the same compound, the “Relative Substances Maximum Single Impurity %” value [2, 7] was 0.60%, the “Relative Substances Maximum Single Impurity %” value ([2]; High-temperature Test 60° C., 10 days) was 0.61% and the “Relative Substances Main Peak %” value ([2]; High-temperature Test 60° C., 10 days, 60 °C high-temperature test) was 98.74%. The “Relative Substances Main Peak %” value [2, 8] was 98.09%, the “Relative Substances Maximum Single Impurity %” value [2, 8] was 0.51% and the “Relative Substances Main Peak %” value [2, 9] was 96.21%. For the same compound, the “Relative Substances Maximum Single Impurity %” value [2, 9] was 0.70% and the stability [2] was “excellent stability”.
For `CC#CCn1c(N2CCC[C@@H](N)C2)nc2c1c(=O)n(Cc1ccc3nsnc3n1)c(=O)n2C` [crystalline Form B], the powder fluidity (Powder fluidity) was “good powder fluidity”, the “Relative Substances Main Peak %” value ([2]; 0 day) was 99.3% and the “Relative Substances Maximum Single Impurity %” value ([2]; 0 day) was 0.18%. For the same compound, the “Relative Substances Main Peak %” value [2, 3] was 99.36%, the “Relative Substances Maximum Single Impurity %” value [2, 3] was 0.17% and the “Relative Substances Main Peak %” value [2, 4] was 99.4%. The “Relative Substances Maximum Single Impurity %” value [2, 4] was 0.16%, the “Relative Substances Main Peak %” value [2, 5] was 99.38% and the “Relative Substances Maximum Single Impurity %” value [2, 5] was 0.17%. The “Relative Substances Main Peak %” value [2, 6] was 99.44%, the “Relative Substances Maximum Single Impurity %” value [2, 6] was 0.15% and the “Relative Substances Main Peak %” value [2, 10] was 99.33%. For the same compound, the “Relative Substances Maximum Single Impurity %” value [2, 10] was 0.2%, the “Relative Substances Main Peak %” value [2, 11] was 99.12% and the “Relative Substances Maximum Single Impurity %” value [2, 11] was 0.24%. The “Relative Substances Main Peak %” value [2, 8] was 98.98%, the “Relative Substances Maximum Single Impurity %” value [2, 8] was 0.26% and the “Relative Substances Main Peak %” value [2, 9] was 98.2%. For the same compound, the “Relative Substances Maximum Single Impurity %” value [2, 9] was 0.58% and the stability [2] was “excellent stability”.
